Results from article PMC5654082 (Malaria Journal, 2017).
Where a name gives a salt, the structure may show the parent alone.

What was measured:
MATE1 = target: T1, MATE1 (Homo sapiens, UniProt Q96FL8); assay: MATE1-mediated uptake in transduced HEK293 cells; assay type: cell-based; parameters: host or cells: HEK293, baculovirus transduction (CMV promoter), transient; settings: 100 µM, 5 min
T1 sequence (Q96FL8 1-570): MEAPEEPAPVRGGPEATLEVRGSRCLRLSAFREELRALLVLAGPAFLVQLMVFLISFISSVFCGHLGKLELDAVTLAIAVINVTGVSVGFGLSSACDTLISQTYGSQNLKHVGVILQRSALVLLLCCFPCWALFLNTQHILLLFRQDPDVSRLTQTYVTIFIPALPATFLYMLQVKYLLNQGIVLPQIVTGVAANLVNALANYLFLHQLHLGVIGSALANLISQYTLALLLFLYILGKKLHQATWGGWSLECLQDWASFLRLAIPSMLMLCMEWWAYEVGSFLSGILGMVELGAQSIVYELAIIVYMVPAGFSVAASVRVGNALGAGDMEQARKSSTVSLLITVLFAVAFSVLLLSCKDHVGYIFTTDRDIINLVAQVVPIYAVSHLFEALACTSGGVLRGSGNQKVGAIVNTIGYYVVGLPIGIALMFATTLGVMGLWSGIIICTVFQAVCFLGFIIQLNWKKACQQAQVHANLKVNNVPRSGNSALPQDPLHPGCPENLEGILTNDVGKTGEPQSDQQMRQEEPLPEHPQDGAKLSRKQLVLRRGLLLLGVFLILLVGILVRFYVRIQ
Method: (§1) HEK293 cells were modified to transiently express (a combination of) human OCT1, OCT2, MATE1, MATE2-K, or eYFP. Briefly, cDNA of the respective genes was cloned downstream of a CMV promoter into a baculovirus, of which passage three was used to transduce HEK293 cells. These cells were seeded in poly-D-lysine coated 24- or 96-wells plates and grown in a 37 °C incubator at 5% CO2. Growth was initiated at ~ 25% confluency using 375 or 125 μL cell and complete medium (DMEM + GlutaMAX™-I supplemented with 10% fetal bovine serum) suspension per well, respectively. […]
(§2) Import and export of PG and cycloguanil (CG) was assessed by single and double transduced HEK293 cells. […] Following the same procedure as for the cellular import assay described above, the import of 100 µM PG and CG was measured after 5 min incubation and data was plotted as mean pmol/mg/min ± SEM. […] Significant reduction in uptake (i.e. export by MATEs) was determined using ln transformation and a one-way repeated measures ANOVA with Dunnet’s post test.
(§3) Anti-malarial concentration in the cell lysates was quantified using an LC–MS/MS system consisting of a UPLC, a binary solvent manager, a vacuum degasser and an autosampler, coupled to a Xevo TQ-S micro triple quadrupole mass spectrometer. […] The peak area of the most abundant product ion was used for quantification.

MATE2-K = MATE2-K (Homo sapiens, UniProt Q86VL8); assay: MATE2-K-mediated uptake in transduced HEK293 cells; assay type: cell-based; parameters: host or cells: HEK293, baculovirus transduction (CMV promoter), transient; settings: 100 µM, 5 min
Sequence of MATE2-K (Q86VL8 1-566 isoform Q86VL8-3): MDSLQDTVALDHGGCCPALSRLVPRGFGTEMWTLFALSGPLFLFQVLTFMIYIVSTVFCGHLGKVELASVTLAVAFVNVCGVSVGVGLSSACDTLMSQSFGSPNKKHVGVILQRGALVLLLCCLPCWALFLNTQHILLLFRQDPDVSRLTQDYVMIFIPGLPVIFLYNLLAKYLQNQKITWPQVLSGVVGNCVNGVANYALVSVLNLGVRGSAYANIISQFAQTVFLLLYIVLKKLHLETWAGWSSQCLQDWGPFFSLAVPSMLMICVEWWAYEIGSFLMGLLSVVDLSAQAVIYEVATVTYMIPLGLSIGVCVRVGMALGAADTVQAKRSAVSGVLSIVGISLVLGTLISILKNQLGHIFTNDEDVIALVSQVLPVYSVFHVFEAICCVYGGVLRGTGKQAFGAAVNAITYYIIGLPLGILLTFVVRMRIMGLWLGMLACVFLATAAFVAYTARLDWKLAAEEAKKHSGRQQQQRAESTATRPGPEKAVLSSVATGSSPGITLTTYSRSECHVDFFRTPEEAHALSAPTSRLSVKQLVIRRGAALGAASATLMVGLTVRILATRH
Method: as §1, §2, §3

Structure (SMILES): CC1(C)N=C(N)N=C(N)N1c1ccc(Cl)cc1 [Cycloguanil]
- Uptake by MATE1 (MATE1): 40 ± 9 pmol/mg/min
- Uptake by MATE2-K (MATE2-K): 56 ± 15 pmol/mg/min

Structure (SMILES): [H]/N=C(\N/C(=N/[H])Nc1ccc(Cl)cc1)NC(C)C [Proguanil, proguanil hydrochloride]
- Uptake by MATE1 (MATE1): 430 ± 110 pmol/mg/min
- Uptake by MATE2-K (MATE2-K): 360 ± 90 pmol/mg/min
